Measured values published in paper PMC3423427, “Design and Synthesis of Potent N-Acylethanolamine-hydrolyzing Acid Amidase (NAAA) Inhibitor as Anti-Inflammatory Compounds” (PLoS ONE, 2012).

Columns and labels:
[1] = molecular target: T1, rat NAAA (Rattus norvegicus, UniProt Q5KTC7); test: NAAA enzymatic assay (recombinant rNAAA protein, LC/MS); format: biochemical; conditions: IC50 ± S.E.M., triplicate; 25 µM heptadecenoylethanolamide, pH 5.0;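 further: reaction product measured by LC/MS using positive APCI ionization with MRM monitoring, quantified from chromatographic peak areas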
T1 construct: made in house; host or cells: HEK293 cells stably overexpressing rat NAAA (HEK293-rNAAA), a gift from D. Piomelli; crude 800 x g supernatant of sonicated cells
T1 sequence (Q5KTC7 34-362): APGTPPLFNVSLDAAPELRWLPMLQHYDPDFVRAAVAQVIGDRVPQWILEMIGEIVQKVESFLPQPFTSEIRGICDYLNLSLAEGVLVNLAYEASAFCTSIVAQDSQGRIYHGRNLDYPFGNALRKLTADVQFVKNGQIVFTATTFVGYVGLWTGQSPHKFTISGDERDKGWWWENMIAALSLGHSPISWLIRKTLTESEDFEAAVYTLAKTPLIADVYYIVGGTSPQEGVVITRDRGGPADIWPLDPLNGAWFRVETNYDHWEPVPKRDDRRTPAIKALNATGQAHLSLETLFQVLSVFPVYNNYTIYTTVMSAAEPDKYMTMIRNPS
Description: (§1) HEK293-rNAAA or HEK293-rFAAH cells were harvested, washed with PBS, sonicated in 20 mM Tris-HCl (pH 7.5) containing 0.32 M sucrose, and centrifuged at 800 × g for 15 min at 4°C. The supernatants were collected and protein concentrations were measured by BCA protein assay kit (Pierce, Shanghai, China). […] The reactions were terminated by adding 0.2 mL methanol containing 1 nmol heptadecanoic acid and analyzed in LC/MS.
(§2) We use an Agilent 1200-LC system coupled to a 3200Q TRAP-MS detector equipped with an ESI interface (Agilent Technologies, Shanghai, China). […] The column temperature was set at 40°C. […] Mass spectrometer (MS) detection was ionized by positive-ion atmospheric pressure chemical ionization mode (APCI^+) and monitored in MRM mode. […] Quantifications were calculated at chromatographic peak areas by using Analyst® version 1.4.1. software (Applied Biosystems).

[2] = molecular target: T2, rat FAAH (Rattus norvegicus, UniProt P97612); test: FAAH enzymatic assay (recombinant rFAAH protein, LC/MS); format: biochemical
T2 construct: made in house; host or cells: HEK293 cells stably overexpressing rat FAAH (HEK293-rFAAH), a gift from D. Piomelli; crude cell extract
T2 sequence (P97612 1-579): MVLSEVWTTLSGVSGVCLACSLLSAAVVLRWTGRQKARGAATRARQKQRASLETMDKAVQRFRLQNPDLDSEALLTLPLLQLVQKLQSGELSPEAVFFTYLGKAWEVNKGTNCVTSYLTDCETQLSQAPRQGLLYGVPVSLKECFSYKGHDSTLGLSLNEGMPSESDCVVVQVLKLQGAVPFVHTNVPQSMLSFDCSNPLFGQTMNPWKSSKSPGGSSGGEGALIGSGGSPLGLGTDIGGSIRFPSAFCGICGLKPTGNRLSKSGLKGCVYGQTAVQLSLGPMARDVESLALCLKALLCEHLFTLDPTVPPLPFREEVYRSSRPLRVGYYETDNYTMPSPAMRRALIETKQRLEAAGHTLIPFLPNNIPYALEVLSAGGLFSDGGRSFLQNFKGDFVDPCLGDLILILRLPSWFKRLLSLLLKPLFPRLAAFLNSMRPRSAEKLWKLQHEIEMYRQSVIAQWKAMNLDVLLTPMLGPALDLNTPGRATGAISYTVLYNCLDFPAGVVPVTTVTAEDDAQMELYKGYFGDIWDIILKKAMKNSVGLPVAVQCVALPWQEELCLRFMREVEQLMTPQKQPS
Description: as §1, §2

[3] = molecular target: T3, NAAA (Rattus norvegicus, UniProt Q5KTC7)
T3 sequence (Q5KTC7 34-362): T1 sequence (Q5KTC7 34-362)
Description: HEK293-rNAAA or HEK293-rFAAH cells were harvested, washed with PBS, sonicated in 20 mM Tris-HCl (pH 7.5) containing 0.32 M sucrose, and centrifuged at 800 × g for 15 min at 4°C. The supernatants were collected and protein concentrations were measured by BCA protein assay kit (Pierce, Shanghai, China). NAAA activity was measured by incubating 30 µg recombinant rNAAA protein with testing compound at 37°C for 30 min in 0.2 mL phosphate buffer (50 mM, pH 5.0) containing 0.1% Triton X-100, 3 mM DTT, and 25 µM heptadecenoylethanolamide as substrate. […] The reactions were terminated by adding 0.2 mL methanol containing 1 nmol heptadecanoic acid and analyzed in LC/MS.

[4] = molecular target: T3, NAAA; test: Dialysis NAAA assay; format: biochemical; set-up: made in house; host or cells: HEK293 cells stably overexpressing rat NAAA (HEK293-rNAAA), a gift from D. Piomelli; crude 800 x g supernatant of sonicated cells; conditions: 8 hr dialysis
Description: Dialysis assay was performed using Slide-A-Lyzer Dialysis Cassettes (Pierce, Shanghai, China). Briefly, 2 mg NAAA protein was incubated with compound 16 or dimethyl sulfoxide (DMSO) in 4 mL Tris-HCl buffer (50 mM, pH 5.0) for 10 minutes at 37°C. Mixed reaction solution was loaded onto a dialysis cartridge using a syringe and incubated in Tris-HCl buffer (50 mM, pH 5.0) at 4°C for 8 h. The samples were removed from Dialysis Cassettes by syringes for NAAA enzymatic assay.

## O=C(CCc1ccc(-c2ccccc2)cc1)N1CCCC1 [Compound 16, 1–(2–Biphenyl–4–yl)ethyl–carbonyl pyrrolidine]
[1]
  IC50: 2.12 ± 0.41 µM
[2]; IC50 ± S.E.M., triplicate, 25 µM anandamide, pH 8.0
  IC50: > 100 µM
[2]; at concentration of 100 µM
  reduction of FAAH activity: no more than 30%
[3]; 5µM compound 16, […], n = 3
  Vmax of NAAA activity: 5854 ± 511 pmol/min/mg
[3]; rapid dilution, dialysis and kinetic analysis
  mode of NAAA inhibition: reversible and competitive
[3]; read-out: Michaelis-Menten constant Km, 5µM compound 16, […]
  Km: 328 ± 98 µM
[3]; read-out: dissociation constant Ki, calculated from Km (inhibitor) = Km (1+[I]/Ki)
  Ki: 5.65 µM
[4]
  NAAA activity after dialysis of inhibitor-NAAA complex: almost completely restored the NAAA activity
